Data taken from patent publication US8372408B2, “Use of Phaeodactylum algae extract for depigmenting the skin” (LVMH Recherche, priority 2007, dated 2013).
Residues, ends and D or L forms follow the SMILES beside them. *: point of attachment. Cbz = O=C(OCc1ccccc1)*

Assays:
[1] = biological target: T1, proteasome (trypsin-like activity) of MNT1 cells (Homo sapiens, UniProt Q99436); assay: Proteasome LSTR (trypsin-like) activity assay on lyzates of treated MNT1 cells; format: cell-based; conditions: for Proteasome activity at 72 hours, Trypsin-like: MNT1 cells lyzed 72 hours after treatment, palmitic or linoleic acid 25 μM, Phaeodactylum 5 μg/ml, Mg132 120 nM where stated
T1 construct: introduce in duplicate a fixed volume of cell lyzate; endogenous in cells; host or cells: MNT1 human melanocyte line (lysate)
T1 sequence (Q99436 44-277): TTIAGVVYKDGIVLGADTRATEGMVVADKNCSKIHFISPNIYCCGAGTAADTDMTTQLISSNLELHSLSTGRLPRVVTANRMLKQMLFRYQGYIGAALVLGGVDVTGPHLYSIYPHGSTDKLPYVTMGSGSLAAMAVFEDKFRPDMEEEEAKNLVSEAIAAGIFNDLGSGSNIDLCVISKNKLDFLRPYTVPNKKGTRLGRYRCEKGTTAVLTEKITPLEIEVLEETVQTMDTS
Description: 2.1 Treatment of MNT1 Cells (Human Melanocyte Cell Lines) in Order to Assay the Proteasome and Tyrosinase Activities MNT1, 10^6 cells/dish 35 mm in diameter, in triplicate
Treatment on D1 • Linoleic acid 25 μM • Palmitic acid 25 μM • Phaeodactylum 5 μg/ml +1% BSA+Vitamin E 50 μM+Vitamin C 1 mM • Linoleic acid 25 μM • Palmitic acid 25 μM • Phaeodactylum 5 μg/ml Stirring with a magnetic bar at 37° C. for 1 hour • 2nd treatment on D4 +Cycloheximide 1 μg/ml (protein synthesis inhibitor)
+120 nM Mg132 for the assay of the tyrosinase activity. • Preparation of the lyzates after 4 hours 2 rinses with PBS (phosphate-buffered saline)
(§1) On a bed of ice; recovery in 150 μl of lysis buffer by scraping.
Freezing at […]. • Protein assay via the Bradford method • Proteasome activity assay The cells are rinsed twice with PBS and each peptidase activity of the proteasome is then determined by using a fluorogenic peptide substrate specific for each of the activities, in the presence and in the absence of a specific proteasome inhibitor, MG 132 (Leu-Leu-Leucinal). The peptide substrate products are the following: Leu-Leu-Val-Tyr-amc (LLVY-amc) for the chymotrypsin-like activity, Leu-Leu-Glu-na (LLE-na) for the post-glutamic hydrolase activity and Leu-Ser-Thr-Arg-amc (LSTR-amc) for the trypsin-like activity. The principle of the assay consists in monitoring over time the increase in fluorescence due to the release of the fluorophores aminomethylcoumarin or β-naphthylamine from the fluorogenic peptides. […]
Proteasome (LSTR Activity (Trypsin-Like)) Nt Boc LSTR-MCA→Nt Boc LSTR+MCA fluorescent Reading on a spectrofluorimeter at an excitation wavelength of 350 nm and an emission wavelength of 440 nm. c.4—Assay of the LSTR Activity • In a 96-well plate, introduce in duplicate a fixed volume of cell lyzate (determined from the lowest protein concentration of the samples, which should correspond to 50 μg of protein) and make up to 100 μl with TRIS buffer. • Add 100 μl of LSTR-MCA substrate prediluted to 80 μM in the TRIS buffer (40 μM final). • In parallel, check that it is indeed the proteasome activity by testing the inhibitor Mg132. • Add to 50 μg of protein 10 μl of solution of Mg132 prediluted to 400 μM in the TRIS buffer (20 μM final) and make up to 100 μl with TRIS buffer. Next, add 100 μl of LSTR substrate prediluted to 80 μM in the TRIS buffer (40 μM final). • Take the spectrofluorimeter readings at an excitation wavelength of 355 nm and an emission wavelength of 460 nm at a gain of 30, every 2 minutes, for 30 minutes.
The raw results are expressed in F.U./min. […]
(§2) For the assay of the proteasome activities, the cells were lyzed at 72 hours after the cell treatment, and the protein concentration was determined.

[2] = biological target: T2, proteasome (post-glutamic hydrolase activity) of MNT1 cells (Homo sapiens, UniProt P28072); assay: Proteasome LLE (post-glutamic hydrolase) activity assay on lyzates of treated MNT1 cells; format: cell-based; conditions: for Proteasome activity at 72 hours, Post-glutamic hydrolase: MNT1 cells lyzed 72 hours after treatment, palmitic or linoleic acid 25 μM, Phaeodactylum 5 μg/ml, Mg132 120 nM where stated; for post-glutamic hydrolase peptidase activity of the proteasome, change in words: 72 hours after addition, MNT-1 melanocytes, FIG. 1B
T2 construct: introduce in duplicate a fixed volume of cell lyzate; endogenous in cells; host or cells: MNT1 human melanocyte line (lysate)
T2 sequence (P28072 1-239): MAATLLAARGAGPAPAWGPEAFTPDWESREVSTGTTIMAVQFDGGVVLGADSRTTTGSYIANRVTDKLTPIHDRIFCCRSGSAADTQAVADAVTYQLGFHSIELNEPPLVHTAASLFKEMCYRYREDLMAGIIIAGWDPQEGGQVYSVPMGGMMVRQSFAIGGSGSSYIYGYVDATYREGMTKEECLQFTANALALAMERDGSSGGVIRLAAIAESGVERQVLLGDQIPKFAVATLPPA
Description: 2.1 Treatment of MNT1 Cells (Human Melanocyte Cell Lines) in Order to Assay the Proteasome and Tyrosinase Activities
MNT1, 10^6 cells/dish 35 mm in diameter, in triplicate
Treatment on D1 • Linoleic acid 25 μM • Palmitic acid 25 μM • Phaeodactylum 5 μg/ml
+1% BSA+Vitamin E 50 μM+Vitamin C 1 mM • Linoleic acid 25 μM • Palmitic acid 25 μM • Phaeodactylum 5 μg/ml
Stirring with a magnetic bar at 37° C. for 1 hour • 2nd treatment on D4
+Cycloheximide 1 μg/ml (protein synthesis inhibitor)
+120 nM Mg132 for the assay of the tyrosinase activity. • Preparation of the lyzates after 4 hours
2 rinses with PBS (phosphate-buffered saline)
as §1
Freezing at ±20° C. • Protein assay via the Bradford method • Proteasome activity assay
The cells are rinsed twice with PBS and each peptidase activity of the proteasome is then determined by using a fluorogenic peptide substrate specific for each of the activities, in the presence and in the absence of a specific proteasome inhibitor, MG 132 (Leu-Leu-Leucinal). The peptide substrate products are the following: Leu-Leu-Val-Tyr-amc (LLVY-amc) for the chymotrypsin-like activity, Leu-Leu-Glu-na (LLE-na) for the post-glutamic hydrolase activity and Leu-Ser-Thr-Arg-amc (LSTR-amc) for the trypsin-like activity. The principle of the assay consists in monitoring over time the increase in fluorescence due to the release of the fluorophores aminomethylcoumarin or β-naphthylamine from the fluorogenic peptides.
b)—LLE Activity (Post-Glutamic Hydrolase)
The following cleavage reaction is studied: • Proteasome (LLE activity • (post-glutamic hydrolase) N-CBZ-LLE-NA→N-CBZ-LLE-+NA fluorescent
Reading on a spectrofluorimeter at an excitation wavelength of 333 nm and an emission wavelength of 410 nm.
The process is performed as follows: • In a 96-well plate, introduce in duplicate a fixed volume of cell lyzate (determined from the lowest protein concentration of the samples, which should correspond to 20 μg of protein) and make up to 100 μl with TRIS buffer. • Add 100 μl of LLE-NA substrate prediluted to 300 μM in the TRIS buffer (150 μM final). • Take the spectrofluorimeter readings at an excitation wavelength of 340 nm and an emission wavelength of 410 nm at a gain of 83 every 2 minutes, for 35 minutes.
The raw results are expressed in F.U./min.
The assay is performed on 200 μl of reaction volume containing a volume V of cell lyzate set as a function of the protein concentrations of the lyzates.
From the calibration range, the activity may be expressed in pmol of MCA released/minute/mg of protein:
as §2

CC(C)C[C@@H](C=O)NC(=O)[C@H](CC(C)C)NC(=O)[C@H](CC(C)C)NC(=O)OCc1ccccc1 [Control + Mg132, Z-Leu-Leu-Leu-CHO] (Cbz-Leu-Leu-Leu-aldehyde)
Proteasome activity at 72 hours, Trypsin-like [1]: 627 ± 282 pmol/min/mg | Proteasome activity at 72 hours, Post-glutamic hydrolase [2]: 42 ± 5 nmol/min/mg

CCCCC/C=C\C/C=C\CCCCCCCC(=O)O [Linoleic acid]
trypsin-like peptidase activity of the proteasome, change in words ([1]; 72 hours after addition, MNT-1 melanocytes, FIG. 1C): increase and do so significantly | Proteasome activity at 72 hours, Trypsin-like [1]: 2848 ± 424 pmol/min/mg | post-glutamic hydrolase peptidase activity of the proteasome, change in words [2]: increase and do so significantly | Proteasome activity at 72 hours, Post-glutamic hydrolase [2]: 78 ± 3.6 nmol/min/mg

CCCCCCCCCCCCCCCC(=O)O [Palmitic acid]
Proteasome activity at 72 hours, Trypsin-like [1]: 1998 ± 261 pmol/min/mg | post-glutamic hydrolase peptidase activity of the proteasome, change in words [2]: reduced | Proteasome activity at 72 hours, Post-glutamic hydrolase [2]: 54 ± 6 nmol/min/mg
